Laboratory results: PMC7866801, “Design and Synthesis of N-Substituted 3,4-Pyrroledicarboximides as Potential Anti-Inflammatory Agents” (International Journal of Molecular Sciences, 2021)

Tests used:
COX-1 = target: T1, COX-1 (Ovis aries, UniProt P05979); test: colorimetric COX peroxidase inhibitor screening kit, […] nm; type: biochemical; settings: tested at 100 µM only, 2 min, RT; unreliable
T1 construct: gene PTGS1; homodimer
T1 sequence (P05979 25-600): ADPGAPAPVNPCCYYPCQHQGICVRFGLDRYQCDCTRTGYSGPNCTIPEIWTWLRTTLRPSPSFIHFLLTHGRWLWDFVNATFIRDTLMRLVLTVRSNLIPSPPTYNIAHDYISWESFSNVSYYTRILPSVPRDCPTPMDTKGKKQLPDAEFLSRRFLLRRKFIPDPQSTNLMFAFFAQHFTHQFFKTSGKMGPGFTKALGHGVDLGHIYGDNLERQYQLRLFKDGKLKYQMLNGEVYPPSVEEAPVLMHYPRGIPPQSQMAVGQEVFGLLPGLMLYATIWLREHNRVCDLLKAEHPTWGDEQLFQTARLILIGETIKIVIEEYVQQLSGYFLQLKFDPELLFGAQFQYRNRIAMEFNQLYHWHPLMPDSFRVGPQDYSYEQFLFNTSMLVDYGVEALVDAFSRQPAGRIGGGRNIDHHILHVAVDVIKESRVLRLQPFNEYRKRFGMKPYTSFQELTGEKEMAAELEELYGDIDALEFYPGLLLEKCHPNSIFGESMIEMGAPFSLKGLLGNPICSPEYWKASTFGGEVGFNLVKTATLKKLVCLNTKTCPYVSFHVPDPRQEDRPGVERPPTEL

COX-2 = target: T2, COX-2 (Homo sapiens, UniProt P35354); test: as above; type: biochemical; settings: tested at 100 µM only, 2 min, RT; unreliable
T2 construct: gene PTGS2; homodimer
T2 sequence (P35354 18-604): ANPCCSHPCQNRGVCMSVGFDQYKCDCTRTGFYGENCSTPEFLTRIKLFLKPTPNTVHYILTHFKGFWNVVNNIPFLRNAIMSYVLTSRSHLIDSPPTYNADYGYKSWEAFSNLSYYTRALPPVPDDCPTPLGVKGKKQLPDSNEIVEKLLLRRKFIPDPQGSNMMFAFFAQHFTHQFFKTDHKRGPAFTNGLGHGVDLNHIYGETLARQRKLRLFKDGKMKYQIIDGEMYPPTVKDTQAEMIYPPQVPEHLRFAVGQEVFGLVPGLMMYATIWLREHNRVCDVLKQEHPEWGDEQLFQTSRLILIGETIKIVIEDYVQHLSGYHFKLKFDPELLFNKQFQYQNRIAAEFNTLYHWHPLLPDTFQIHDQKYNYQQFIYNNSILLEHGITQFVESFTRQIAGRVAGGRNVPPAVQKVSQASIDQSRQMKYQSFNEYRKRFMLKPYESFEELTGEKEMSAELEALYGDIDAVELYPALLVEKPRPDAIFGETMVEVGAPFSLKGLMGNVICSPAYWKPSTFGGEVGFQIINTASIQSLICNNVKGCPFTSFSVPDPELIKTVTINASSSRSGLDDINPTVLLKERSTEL

Cc1c2c(c(C)n1-c1ccccc1)C(=O)N(CN1CCN(c3ccc(Br)cc3)CC1)C2=O [2a, 4,6-dimethyl-5-phenyl-2{[4-(p-bromophenyl)-1-piperazinyl]methyl}pyrrolo[3,4-c]pyrrole-1,3(2H,5H)-dione]
Cyclooxygenase Inhibition Assay IC50 [μM] / COX-1 (COX-1): 87.90 ± 0.03 µM
Cyclooxygenase Inhibition Assay IC50 [μM] / COX-2 (COX-2): 60.85 ± 0.02 µM

Cc1c2c(c(C)n1-c1ccccc1Cl)C(=O)N(CN1CCN(c3ccc(Br)cc3)CC1)C2=O [2b, 4,6-dimethyl-5-(o-chlorophenyl)-2-{[4-(p-bromophenyl)-1-piperazinyl]methyl}pyrrolo[3,4-c]pyrrole-1,3(2H,5H)-dione]
Cyclooxygenase Inhibition Assay IC50 [μM] / COX-1 (COX-1): 94.17 ± 0.04 µM
Cyclooxygenase Inhibition Assay IC50 [μM] / COX-2 (COX-2): 61.46 ± 0.02 µM

Cc1c2c(c(C)n1-c1ccccc1)C(=O)N(CN1CCN(c3ccccc3C#N)CC1)C2=O [2c, 4,6-dimethyl-5-phenyl-2{[4-(o-cyanophenyl)-1-piperazinyl]methyl}pyrrolo[3,4-c]pyrrole-1,3(2H,5H)-dione]
Cyclooxygenase Inhibition Assay IC50 [μM] / COX-1 (COX-1): 94.56 ± 0.02 µM
Cyclooxygenase Inhibition Assay IC50 [μM] / COX-2 (COX-2): 61.53 ± 0.09 µM

Cc1c2c(c(C)n1-c1ccccc1)C(=O)N(CN1CCN(c3cccc(C(F)(F)F)c3)CC1)C2=O [2d, 4,6-dimethyl-5-phenyl-2{[4-(m-trifluoromethylphenyl)-1-piperazinyl]methyl}pyrrolo[3,4-c]pyrrole-1,3(2H,5H)-dione]
Cyclooxygenase Inhibition Assay IC50 [μM] / COX-1 (COX-1): 77.46 ± 0.06 µM
Cyclooxygenase Inhibition Assay IC50 [μM] / COX-2 (COX-2): 60.24 ± 0.03 µM

CCCCn1c(C)c2c(c1C)C(=O)N(CN1CCN(c3ccc(C)cc3)CC1)C2=O [2e, 4,6-dimethyl-5-n-butyl-2-{[4-(p-methylphenyl)-1-piperazinyl]methyl}pyrrolo[3,4-c]pyrrole-1,3-(2H,5H)-dione]
Cyclooxygenase Inhibition Assay IC50 [μM] / COX-1 (COX-1): 78.73 ± 0.06 µM
Cyclooxygenase Inhibition Assay IC50 [μM] / COX-2 (COX-2): 60.75 ± 0.02 µM

CCCCn1c(C)c2c(c1C)C(=O)N(CN1CCN(c3ncccn3)CC1)C2=O [2f, 4,6-dimethyl-5-n-butyl-2-{[4-(2-pyrimidinyl)piperazin-1-yl]methyl}pyrrolo[3,4-c]pyrrole-1,3(2H,5H)-dione]
Cyclooxygenase Inhibition Assay IC50 [μM] / COX-1 (COX-1): 80.51 ± 0.06 µM
Cyclooxygenase Inhibition Assay IC50 [μM] / COX-2 (COX-2): 58.87 ± 0.08 µM

Cc1c2c(c(C)n1-c1ccccc1)C(=O)N(CN1CCN(C3CCCCC3)CC1)C2=O [2g, 4,6-dimethyl-5-phenyl-2-[(4-cyclohexyl-1-piperazinyl)methyl]pyrrolo[3,4-c]pyrrole-1,3(2H,5H)-dione]
Cyclooxygenase Inhibition Assay IC50 [μM] / COX-1 (COX-1): 80.25 ± 0.06 µM
Cyclooxygenase Inhibition Assay IC50 [μM] / COX-2 (COX-2): 59.92 ± 0.05 µM

Cc1c2c(c(C)n1-c1ccccc1Cl)C(=O)N(CN1CCN(C3CCCCC3)CC1)C2=O [2h, 4,6-dimethyl-5-(o-chlorophenyl)-2-[(4-cyclohexyl-1-piperazinyl)methyl]pyrrolo[3,4-c]pyrrole-1,3(2H,5H)-dione]
Cyclooxygenase Inhibition Assay IC50 [μM] / COX-1 (COX-1): 76.54 ± 0.06 µM
Cyclooxygenase Inhibition Assay IC50 [μM] / COX-2 (COX-2): 59.37 ± 0.05 µM

CCCCn1c(C)c2c(c1C)C(=O)N(CN1CCN(C3CCCCC3)CC1)C2=O [2i, 4,6-dimethyl-5-n-butyl-2-[(4-cyclohexyl-1-piperazinyl)methyl]pyrrolo[3,4-c]pyrrole-1,3(2H,5H)-dione]
Cyclooxygenase Inhibition Assay IC50 [μM] / COX-1 (COX-1): 79.87 ± 0.07 µM
Cyclooxygenase Inhibition Assay IC50 [μM] / COX-2 (COX-2): 60.96 ± 0.04 µM

CCCCn1c(C)c2c(c1C)C(=O)N(CN1CCN(CCO)CC1)C2=O [2j, 4,6-dimethyl-5-n-butyl-2-{[4-hydroxyethyl-1-piperazinyl]methyl}pyrrolo[3,4-c]pyrrole-1,3(2H,5H)-dione]
Cyclooxygenase Inhibition Assay IC50 [μM] / COX-1 (COX-1): 84.90 ± 0.05 µM
Cyclooxygenase Inhibition Assay IC50 [μM] / COX-2 (COX-2): 59.77 ± 0.11 µM

Cc1c2c(c(C)n1-c1ccccc1)C(=O)N(CN1CCNCC1)C2=O [2k, 4,6-dimethyl-5-phenyl-2-[(piperazinyl)methyl]pyrrolo[3,4-c]pyrrole-1,3(2H,5H)-dione]
Cyclooxygenase Inhibition Assay IC50 [μM] / COX-1 (COX-1): 83.47 ± 0.05 µM
Cyclooxygenase Inhibition Assay IC50 [μM] / COX-2 (COX-2): 58.43 ± 0.06 µM

Cc1c2c(c(C)n1-c1ccccc1)C(=O)N(CN1CCOCC1)C2=O [2l, 4,6-dimethyl-5-phenyl-2-[(morpholinyl)methyl]pyrrolo[3,4-c]pyrrole-1,3(2H,5H)-dione]
Cyclooxygenase Inhibition Assay IC50 [μM] / COX-1 (COX-1): 82.72 ± 0.04 µM
Cyclooxygenase Inhibition Assay IC50 [μM] / COX-2 (COX-2): 59.33 ± 0.09 µM

CCCCn1c(C)c2c(c1C)C(=O)N(CN1CCC(c3ccccc3)CC1)C2=O [2m, 4,6-dimethyl-5-n-butyl-2-[(4-phenyl-1-piperidinyl)methyl]pyrrolo[3,4-c]pyrrole-1,3(2H,5H)-dione]
Cyclooxygenase Inhibition Assay IC50 [μM] / COX-1 (COX-1): 88.15 ± 0.02 µM
Cyclooxygenase Inhibition Assay IC50 [μM] / COX-2 (COX-2): 60.39 ± 0.02 µM

CCCCn1c(C)c2c(c1C)C(=O)N(CN1CCC(O)(c3ccc(Br)cc3)CC1)C2=O [2n, 4,6-dimethyl-5-n-butyl-2-{[4-(p-bromophenyl)-4-hydroxypiperidin-1-yl]methyl}pyrrolo[3,4-c]pyrrole-1,3(2H,5H)-dione]
Cyclooxygenase Inhibition Assay IC50 [μM] / COX-1 (COX-1): 77.59 ± 0.09 µM
Cyclooxygenase Inhibition Assay IC50 [μM] / COX-2 (COX-2): 57.65 ± 0.04 µM

CCCCn1c(C)c2c(c1C)C(=O)N(CN1CCC(O)(c3ccc(Cl)cc3)CC1)C2=O [2o, 4,6-dimethyl-5-n-butyl-2-{[4-(p-chlorophenyl)-4-hydroxypiperidin-1-yl]methyl}pyrrolo[3,4-c]pyrrole-1,3(2H,5H)-dione]
Cyclooxygenase Inhibition Assay IC50 [μM] / COX-1 (COX-1): 78.25 ± 0.10 µM
Cyclooxygenase Inhibition Assay IC50 [μM] / COX-2 (COX-2): 58.38 ± 0.16 µM

CCCCn1c(C)c2c(c1C)C(=O)N(CN1CCC(O)(Cc3ccccc3)CC1)C2=O [2p, 4,6-dimethyl-5-n-butyl-2-{[4-benzyl-4-hydroxypiperidin-1-yl]methyl}pyrrolo[3,4-c]pyrrole-1,3(2H,5H)-dione]
Cyclooxygenase Inhibition Assay IC50 [μM] / COX-1 (COX-1): 82.94 ± 0.04 µM
Cyclooxygenase Inhibition Assay IC50 [μM] / COX-2 (COX-2): 59.37 ± 0.07 µM
